According to publication PMC3240935, “Development and characterization of a novel C-terminal inhibitor of Hsp90 in androgen dependent and independent prostate cancer cells” (2011):

Target: T1, Hsp90β (Homo sapiens, UniProt P08238)
T1 construct: gene HSP90AB1; recombinant Hsp90β purified from baculovirus infected Sf9 cells
Assay: SPR, immobilized Hsp90β, binding curve fit (kinetic Kd […])

T1 sequence (P08238 2-724): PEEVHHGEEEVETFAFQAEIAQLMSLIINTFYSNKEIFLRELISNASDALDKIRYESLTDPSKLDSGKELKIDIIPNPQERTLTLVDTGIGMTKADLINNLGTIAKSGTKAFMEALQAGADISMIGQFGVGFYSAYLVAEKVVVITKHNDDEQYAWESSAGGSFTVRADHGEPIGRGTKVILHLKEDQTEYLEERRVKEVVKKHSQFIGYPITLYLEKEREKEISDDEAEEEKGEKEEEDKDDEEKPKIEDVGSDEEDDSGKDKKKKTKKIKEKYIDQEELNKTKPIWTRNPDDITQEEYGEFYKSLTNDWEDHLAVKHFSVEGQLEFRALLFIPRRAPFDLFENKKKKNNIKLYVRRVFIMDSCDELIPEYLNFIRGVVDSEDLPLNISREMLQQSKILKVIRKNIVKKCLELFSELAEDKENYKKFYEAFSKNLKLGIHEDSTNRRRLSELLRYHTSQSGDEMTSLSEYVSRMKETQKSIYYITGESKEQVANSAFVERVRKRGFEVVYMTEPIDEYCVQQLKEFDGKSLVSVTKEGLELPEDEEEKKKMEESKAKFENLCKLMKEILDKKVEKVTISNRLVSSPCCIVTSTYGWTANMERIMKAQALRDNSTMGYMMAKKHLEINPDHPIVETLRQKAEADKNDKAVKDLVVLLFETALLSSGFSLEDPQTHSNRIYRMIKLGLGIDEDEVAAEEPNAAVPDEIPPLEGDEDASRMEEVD

Kd: 78 µM
Substance: KU174
